The test system of series [1] is Micrococccus luteus NCIMB 8166. Put plainly: Antimicrobial activity (MIC, MBC) against M. luteus. The class given is cell-based. The settings on record: M. luteus NCIMB 8166, '-' = No activity.
In series [2] the test system is Staphylococcus aureus ATCC 25923. Put plainly: Antimicrobial activity (MIC, MBC) against S. aureus. The class given is cell-based. The settings on record: S. aureus ATCC 25923; for MBC/MIC: bactericidal ≤ 4, bacteriostatic > 4; for MIC: Staphylococcus aureus, ATCC25923, '-' = No activity.
In the next series the test system is Candida krusei ATCC 6258. The experiment in a line: Antifungal activity (MIC, MFC) against C. krusei. The class given is cell-based. The settings on record: C. krusei ATCC 6258, '-' = No activity; for MFC / MIC: Pichia kudriavzevii, ATCC6258.
Series [3] concerns Pseudomonas aeruginosa ATCC 27853. Put plainly: Antimicrobial activity (MIC, MBC) against P. aeruginosa. The class given is cell-based. The following applies: P. aeruginosa ATCC 27853; '-' = No activity.
In series [4] the test system is Candida albicans ATCC 90028. The experiment in a line: Antifungal activity (MIC, MFC) against C. albicans. The settings on record: C. albicans ATCC 90028, '-' = No activity; for MFC/MIC: fungicidal ≤ 4, fungistatic > 4. The class given is cell-based.
The nature of series [5]: Ferric reducing power assay (FRAP).
Series [6] can be described thus: Ferric reducing power assay (FRAP). The settings on record: relative to standard Trolox. The protocol:
The FRAP assay was used to determine the AC of the products by the reduction of Fe(III) and Fe (II). Briefly, Fe(III) was reduced to Fe(II), and Fe(II) was mixed with TPTZ to form a blue complex with strong absorption peak at 593 nm at pH = 3.6 condition. Acetate buffer (pH = 3.6), TPTZ solution (10 mM, in 40 mM hydrochloric acid) and FeCl3 solution (20 mM, in water) were mixed in a ratio of 10:1:1 to prepare FRAP working solution. The products solution (0.5 mL) was mixed with 4.0 mL FRAP working solution, and reacted at 37 °C for 30 min in the dark, and the absorbance at 593 nm was immediately recorded with a spectrophotometer. The result was expressed as the equivalent amount of Trolox per mole of the samples (mol TE/mol).

A short description of series [7]: Radical scavenging activity ABTS. The following applies: for IC50: ABTS radical scavenging. How it is done:
The ABTS assay was performed as previously described by Tuberoso et al.. ABTS^+ radical was generated by oxidation of ABTS with potassium persulfate. The blue–green ABTS was produced through the reaction between 2 mM ABTS and […] potassium persulfate in water. The mixture was left to stand in the dark for 12 to 16 h before use. The ABTS solution was diluted with methanol to an absorbance of 0.700 ± 0.005 at 734 nm. Then 2 mL of diluted ABTS solution was mixed with 100 μL of samples and absorbance was measured after 1 min incubation at room temperature. A standard curve was obtained by using Trolox as standard solution. The results were expressed as μM Trolox equivalent.
The mixture of 7 mmol/L aqueous ABTS solution with 2.45 mmol/L potassium persulfate solution constitutes a stable ABTS^+ stock solution that was allowed to stand in the dark and at room temperature for 12 to 16 h before use. A 1 mL sample of the diluted ABTS solution (adjusted to 0.7 ± 0.02 at […]) was added to 10 μL of each product. The absorbance was determined after 6 min. The percentage inhibition of the ABTS˙ radical was calculated from the following equation:% inhibition = (Abscontrol − Abstest)/Abscontrol × 100
Abs control: the control absorbance.
Abs test: the absorbance of the test sample after 6 min.

The nature of series [8]: DPPH free radical scavenging activity. The following applies: for IC50: DPPH radical scavenging. The protocol:
DPPH, the stable artificial free radicals, has been widely used for the measurement of free radical scavenging capacity of the compounds in ethanol and aqueous systems. Briefly, 2 mL DPPH solution (0.2 mM, in 95% ethanol) was incubated with 2 mL different concentrations of compounds solution. Then, the reaction mixture was shaken and incubated in the dark for 40 min at room temperature. The absorbance was immediately recorded at 517 nm against ethanol with a spectrophotometer (Metash, model UV-5200, Shanghai Xiwen Biotech. Co., Ltd, Shanghai, China). The DPPH free radical scavenging rate was calculated using the equation:DPPH scavenging activity (%) = A0 − A1/A0 × 100 where A0 was the absorbance of the control reaction (containing all reagents except the tested compound), and A1 was the absorbance of the test reaction (containing all reagents with the tested compound). The percentage of DPPH radical scavenging activity was plotted against the sample concentration to acquire the IC50 value, defined as the concentration of sample necessary to cause 50% inhibition. Radical scavenging activity (RSA) was calculated from the IC50 value as the equation: RSA = pIC50 = −lg[IC50]. The smaller the IC50 value, the larger is the RSA value and the higher is the antioxidant activity.
A general note: The DPPH test is a chemical assay of radical scavenging.

For series [9], the system named is Escherichia coli ATCC 25922. Put plainly: Antimicrobial activity (MIC, MBC) against E. coli. The class given is cell-based. The following applies: E. coli ATCC 25922; '-' = No activity.

Values after ≈ are worked out from the molar mass of the structure shown.

By melting point is commonly meant the temperature of the solid-liquid transition. For orientation: MIC means the lowest concentration found to suppress growth. A low value points to a more susceptible organism. For orientation: MFC means the smallest concentration meeting the test's criterion for killing the fungus. By IC50 is commonly meant the concentration that gives 50% inhibition. Read a high IC50 as lower potency. With `CN1C(=O)CC2(C1=O)C(c1cccs1)CN(C)C21c2ccccc2-c2nc3ccccc3nc21` (stereo not drawn) [5h, Spiro [2,11″]indeno-[1,2b]-quinoxaline-spiro-[3,3′]-N-methylsuccinimide-4-(4-thiophenyl)hexahydro-1H-pyrrolidines], the melting point was 203 to 205 °C. The molecule also yielded an MBC/MIC in [1] of 1. In [2], this molecule showed an MBC/MIC of 16 and an MIC of 33.3 mM (≈ 15.6 mg/mL). Further, in the series on Candida krusei ATCC 6258, the MFC/MIC is reported as 1, the MFC amounted to 66.7 mM (≈ 31.1 mg/mL) and the MIC was determined as 66.7 mM (≈ 31.1 mg/mL). The same molecule returned an MBC/MIC in series [3] of 2. Besides, in series [4], the MFC/MIC amounted to 4. Also, the MIC in series [4] (Candida albicans, ATCC90028) is 66.7 mM (≈ 31.1 mg/mL). This molecule also displayed an IC50 in [5] of 6.32 ± 0.68 µM. Moreover, the “FRAP activity, fold higher than Trolox” value in series [6] is recorded as “about 6.5 fold”. The molecule also displayed an IC50 in series [7] of 18.04 ± 0.13 µM. The IC50 in series [8] turned out to be 19.1 ± 0.23 µM. Further, in [9], the MBC/MIC was 2.

For the molecule `CN1C(=O)CC2(C1=O)C(c1ccc(Cl)cc1)CN(C)C21c2ccccc2-c2nc3ccccc3nc21` (stereo not drawn) [5e, Spiro [2,11″]indeno-[1,2b]-quinoxaline-spiro-[3,3′]-N-methylsuccinimide-4-(4-chlorophenyl)hexahydro-1H-pyrrolidines], the melting point was in the range of 182 to 184 °C. This molecule yielded an MBC/MIC in [1] of 1. In series [2], the MBC/MIC was determined as 16 and the MIC is 15.7 mM (≈ 7.78 mg/mL). In the series with Candida krusei ATCC 6258, this molecule yielded an MFC/MIC of 1, a minimal fungicidal concentration (MFC) of 31.4 mM (≈ 15.6 mg/mL) and an MIC of 31.4 mM (≈ 15.6 mg/mL). The MBC/MIC in series [3] is 4. In addition, the MFC/MIC in series [4] was 1. Further, in series [4] (Candida albicans, ATCC90028), the MFC came out at 62.9 mM (≈ 31.1 mg/mL) and the MIC is 62.9 mM (≈ 31.1 mg/mL). For the same molecule, inhibition in series [5] was half-maximal at 6.54 ± 0.18 µM (IC50). Also, in series [6], the “FRAP activity, fold higher than Trolox” value is “about 6.5 fold”. In series [7], this molecule came in with an IC50 of 12.2 ± 0.18 µM. Further, the “ABTS scavenging activity, fold higher than Trolox” value in series [7] (relative to standard Trolox) is around 8 fold. Besides, the IC50 in [8] was 6.12 ± 0.01 µM. In addition, in [8] (relative to standard Trolox), the “DPPH scavenging activity, fold better than Trolox” value was 5.1 fold. This molecule yielded an MBC/MIC in series [9] of 2.

As for `CN1C(=O)CC2(C1=O)C(c1ccc(O)c(Br)c1)CN(C)C21c2ccccc2-c2nc3ccccc3nc21` (stereo not drawn) [5l, Spiro [2,11″]indeno-[1,2b]-quinoxaline-spiro-[3,3′]-N-methylsuccinimide-4-(3-bromo-4-hydroxy-phenyl)hexahydro-1H-pyrrolidines], the melting point lay in the range of 189 to 191 °C. Moreover, in series [1], the MBC/MIC worked out at 2. Besides, in [2], the MBC/MIC is on record as 16 and the MIC amounted to 28 mM (≈ 15.6 mg/mL). In the series with Candida krusei ATCC 6258, this molecule displayed an MFC/MIC of 1, an MFC of 28 mM (≈ 15.6 mg/mL) and an MIC of 28 mM (≈ 15.6 mg/mL). In series [3], this molecule had an MBC/MIC of 4. In addition, the MFC/MIC in series [4] worked out at 8. In series [4] (Candida albicans, ATCC90028), 56.1 mM (≈ 31.1 mg/mL) was the least that counted as inhibitory (MIC). This molecule also returned an IC50 in [5] of 3.26 ± 0.45 µM. Besides, the IC50 in series [7] was 15.2 ± 0.31 µM. Also, in series [8], the IC50 amounted to 15.3 ± 0.37 µM. In series [9], the MBC/MIC stood at 2.

`COc1ccc(C2CN(C)C3(c4ccccc4-c4nc5ccccc5nc43)C23CC(=O)N(C)C3=O)cc1OC` (stereo not drawn) [5j, Spiro [2,11″]indeno-[1,2b]-quinoxaline-spiro-[3,3′]-N-methylsuccinimide-4-(3,4-dimethoxyphenyl)hexahydro-1H-pyrrolidines]: the melting point lay in the range of 211 to 213 °C. This molecule also displayed an MBC/MIC in series [1] of 2. In series [2], this molecule yielded an MBC/MIC of 32 and an MIC of 14.9 mM (≈ 7.78 mg/mL). In the series with Candida krusei ATCC 6258, this molecule displayed an MFC/MIC of 1, an MFC of 59.8 mM (≈ 31.1 mg/mL) and an MIC of 59.8 mM (≈ 31.1 mg/mL). For the same molecule, in series [3], the MBC/MIC came out at 2. In addition, in [4], the MFC/MIC stood at 2. In addition, the IC50 in [5] is 5.98 ± 0.17 µM. In series [7], this molecule returned an IC50 of 11.56 ± 0.05 µM. For the same molecule, the IC50 in series [8] was determined as 19.2 ± 0.19 µM. In [9], this molecule displayed an MBC/MIC of 2.

`COc1ccc(C2CN(C)C3(c4ccccc4-c4nc5ccccc5nc43)C23CC(=O)N(C)C3=O)cc1` (stereo not drawn) [5d, Spiro [2,11″]indeno-[1,2b]-quinoxaline-spiro-[3,3′]-N-methylsuccinimide-4-(4-methoxyphenyl)hexahydro-1H-pyrrolidines]: the melting point fell in the range of 179 to 181 °C. In addition, the MBC/MIC in [1] is recorded as 4. This molecule also registered an MIC in [1] (Micrococcus luteus, NCIMB8166) of 63.4 mM (≈ 31.1 mg/mL). For the same molecule, in series [2], the MBC/MIC is 32 and it took 3.95 mM (≈ 1.94 mg/mL) to inhibit growth (MIC). In the series on Candida krusei ATCC 6258, this molecule registered an MFC/MIC of 1, an MFC of 15.8 mM (≈ 7.78 mg/mL) and an MIC of 15.8 mM (≈ 7.78 mg/mL). In series [3], this molecule gave an MBC/MIC of 4. This molecule returned an MFC/MIC in [4] of 4. The same molecule registered an MIC in series [4] (Candida albicans, ATCC90028) of 31.7 mM (≈ 15.6 mg/mL). The IC50 in [5] is 8.09 ± 0.82 µM. The same molecule had an IC50 in [7] of 9.78 ± 0.3 µM. 7.44 ± 0.15 µM corresponded to half-maximal inhibition in series [8] (IC50). In addition, in series [9], the MBC/MIC turned out to be 4.

Regarding `CN1C(=O)CC2(C1=O)C(c1cccc(Cl)c1)CN(C)C21c2ccccc2-c2nc3ccccc3nc21` (stereo not drawn) [5i, Spiro [2,11″]indeno-[1,2b]-quinoxaline-spiro-[3,3′]-N-methylsuccinimide-4-(3-chloro-phenyl)hexahydro-1H-pyrrolidines], the melting point was 193 to 195 °C. The MBC/MIC in [1] was 1. In [2], this molecule registered an MBC/MIC of 4. Further, in the series on Candida krusei ATCC 6258, the MFC/MIC is on record as 1, the MFC came out at 31.4 mM (≈ 15.6 mg/mL) and the MIC worked out at 31.4 mM (≈ 15.6 mg/mL). This molecule gave an MBC/MIC in series [3] of 4. In addition, the IC50 in [5] is 5.98 ± 0.52 µM. Moreover, in series [6], the “FRAP activity, fold higher than Trolox” value is reported as “about 6.5 fold”. In addition, the IC50 in series [7] was 11.4 ± 0.36 µM. Further, the IC50 in series [8] is 7.8 ± 0.32 µM. In series [9], this molecule had an MBC/MIC of 2.

Source of the values: article PMC9653804, “Multifunctional Derivatives of Spiropyrrolidine Tethered Indeno-Quinoxaline Heterocyclic Hybrids as Potent Antimicrobial, Antioxidant and Antidiabetic Agents: Design, Synthesis, In Vitro and In Silico Approaches” (Molecules, 2022).
